Experimental findings from ChEMBL document CHEMBL5150060 (J Med Chem, 2022) are described below.

The target in data set [1] is T1, Histone deacetylase 8 (Homo sapiens) (UniProt Q9BY41).
T1 sequence (whole entry): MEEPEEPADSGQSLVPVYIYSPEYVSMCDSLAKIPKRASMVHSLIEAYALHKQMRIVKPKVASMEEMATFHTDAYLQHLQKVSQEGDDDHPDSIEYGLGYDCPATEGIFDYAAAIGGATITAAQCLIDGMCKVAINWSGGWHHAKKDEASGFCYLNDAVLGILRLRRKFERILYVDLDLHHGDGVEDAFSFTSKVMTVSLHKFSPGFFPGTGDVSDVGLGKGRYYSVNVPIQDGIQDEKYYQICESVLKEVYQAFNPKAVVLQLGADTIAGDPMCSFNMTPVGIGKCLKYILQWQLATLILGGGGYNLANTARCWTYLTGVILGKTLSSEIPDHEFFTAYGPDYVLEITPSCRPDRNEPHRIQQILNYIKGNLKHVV
Description: Inhibition of HDAC8 in human Jurkat T cells assessed as upregulation of IL-7R expression after 6 hrs by RT-qPCR analysis. The class given is cell-based. To be noted: dose 0.1-10 µM, DDE = dose-dependent effect.

Data set [2] has as its target T1, Histone deacetylase 8 (Homo sapiens). The experiment in a line: Inhibition of HDAC8 in human Jurkat T cells assessed as upregulation of PRDM1 expression at 10 uM after 6 to 12 hrs by RT-qPCR analysis. The class given is cell-based. To be noted: time 6-12 hrs.
The target in data set [3] is T2, Protein deacetylase HDAC6 (Mus musculus) (UniProt Q9Z2V5).
T2 sequence (whole entry): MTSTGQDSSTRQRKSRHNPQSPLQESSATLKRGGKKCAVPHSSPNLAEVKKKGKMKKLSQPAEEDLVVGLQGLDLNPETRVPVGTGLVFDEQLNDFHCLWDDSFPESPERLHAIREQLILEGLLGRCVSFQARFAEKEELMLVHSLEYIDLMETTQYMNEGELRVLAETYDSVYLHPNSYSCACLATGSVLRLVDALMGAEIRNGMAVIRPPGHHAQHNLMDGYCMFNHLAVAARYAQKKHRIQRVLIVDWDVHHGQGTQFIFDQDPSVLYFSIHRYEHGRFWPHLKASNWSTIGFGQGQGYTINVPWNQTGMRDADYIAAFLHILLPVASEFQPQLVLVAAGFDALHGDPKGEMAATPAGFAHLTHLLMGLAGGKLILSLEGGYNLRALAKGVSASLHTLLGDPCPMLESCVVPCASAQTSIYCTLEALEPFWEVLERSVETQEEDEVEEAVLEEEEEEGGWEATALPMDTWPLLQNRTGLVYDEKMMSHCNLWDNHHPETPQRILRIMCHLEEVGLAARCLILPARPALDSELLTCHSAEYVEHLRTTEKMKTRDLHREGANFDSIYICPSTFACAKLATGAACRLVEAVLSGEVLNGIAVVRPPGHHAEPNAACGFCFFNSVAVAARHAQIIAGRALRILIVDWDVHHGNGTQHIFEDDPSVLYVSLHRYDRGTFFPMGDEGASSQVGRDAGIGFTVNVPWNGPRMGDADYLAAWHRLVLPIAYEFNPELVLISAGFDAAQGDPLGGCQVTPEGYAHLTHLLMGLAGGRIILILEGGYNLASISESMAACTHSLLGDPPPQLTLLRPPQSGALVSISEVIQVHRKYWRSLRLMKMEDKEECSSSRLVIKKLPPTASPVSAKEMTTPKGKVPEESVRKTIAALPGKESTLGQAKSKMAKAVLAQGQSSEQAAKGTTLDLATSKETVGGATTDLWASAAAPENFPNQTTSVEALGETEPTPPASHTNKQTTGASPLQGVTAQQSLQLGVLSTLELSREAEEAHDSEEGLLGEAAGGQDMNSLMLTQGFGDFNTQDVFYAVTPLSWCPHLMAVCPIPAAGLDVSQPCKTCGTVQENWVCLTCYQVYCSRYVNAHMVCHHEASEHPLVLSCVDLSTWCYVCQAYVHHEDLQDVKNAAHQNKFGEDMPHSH
Description: Inhibition of HDAC6 in mouse spleen CD4+ T- lymphocytes assessed as increase in H3K27 acetylation level at 5 to 10 uM after 6 hrs by Western blot analysis. To be noted: CD4+ve Th, dose 5-10 µM. The class given is cell-based.

Data set [4] has as its target T3, Histone deacetylase 11 (Homo sapiens, UniProt Q96DB2).
T3 sequence (Q96DB2 whole entry): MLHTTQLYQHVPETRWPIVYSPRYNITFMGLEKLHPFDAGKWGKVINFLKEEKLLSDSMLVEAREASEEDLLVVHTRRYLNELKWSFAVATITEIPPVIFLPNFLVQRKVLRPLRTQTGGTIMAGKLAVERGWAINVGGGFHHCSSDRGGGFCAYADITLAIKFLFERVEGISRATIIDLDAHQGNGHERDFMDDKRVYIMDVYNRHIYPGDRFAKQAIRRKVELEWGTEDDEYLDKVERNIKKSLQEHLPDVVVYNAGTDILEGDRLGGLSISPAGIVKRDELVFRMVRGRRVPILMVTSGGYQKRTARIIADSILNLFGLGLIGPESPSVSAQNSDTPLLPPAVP
Description: Inhibition of recombinant human HDAC11 preincubated for 10 mins followed by substrate addition by fluorescence based analysis.

Data set [5] addresses T2, Protein deacetylase HDAC6 (Mus musculus). Description: Inhibition of HDAC6 in mouse spleen CD4+ T- lymphocytes assessed as increase in SMC3 acetylation level at 5 to 10 uM after 6 hrs by Western blot analysis. It counts as cell-based. To be noted: CD4+ve Th, dose 5-10 µM.
Data set [6] concerns the target Histone deacetylase 3 (Homo sapiens, UniProt O15379). Description: Inhibition of recombinant human HDAC3 using p53 (Ac-RHKK(Acetyl)-AMC) as substrate preincubated for 5 mins followed by substrate addition and measured after 30 mins by fluorescence based analysis.
Data set [7] is described as follows: Toxicity in C57BL/6 mouse assessed as change in intestine weight at 5 to 10 mg/kg, ip administered 5 days per week for 2 weeks by H and E staining based assay. The class given is organism-based. To be noted: in vivo, 336 h, dose 5-10 mg/kg.

Activity calls are given as the source filed them. The calls are words filed in the database; no cut-off is given here.

Chain of Histone deacetylase 3 (O15379 whole entry): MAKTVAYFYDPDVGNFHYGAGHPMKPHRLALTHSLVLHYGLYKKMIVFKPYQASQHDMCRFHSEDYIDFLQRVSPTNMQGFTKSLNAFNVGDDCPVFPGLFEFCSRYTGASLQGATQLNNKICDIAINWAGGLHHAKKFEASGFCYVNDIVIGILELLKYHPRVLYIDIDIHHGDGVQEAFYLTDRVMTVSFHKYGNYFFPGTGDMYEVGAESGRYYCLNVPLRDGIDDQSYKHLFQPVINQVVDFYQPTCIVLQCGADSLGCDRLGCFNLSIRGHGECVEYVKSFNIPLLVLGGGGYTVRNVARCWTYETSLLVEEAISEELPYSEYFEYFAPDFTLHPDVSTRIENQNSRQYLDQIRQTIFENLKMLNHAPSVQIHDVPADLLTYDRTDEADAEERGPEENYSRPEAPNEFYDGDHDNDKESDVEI

`CCCCCCNNC(=O)c1ccc(-c2ccc(CNC(C)=O)cc2)cc1`: the inhibition entry in data set [1] is “Dde”. Moreover, the inhibition result in data set [2], in data set [3] and in data set [5] was “Active” in each case. Further, the half-inhibitory concentration (IC50) is 0.18 µM in data set [4] and above 20 µM in data set [6]. For the same compound, the Activity result in data set [7] was “Non-Toxic”.
